Assay results published in patent US11629171B2, “Beta-hairpin peptidomimetics” (POLYPHOR AG, priority 2017, dated 2023).
≈ marks a conversion by molar mass, not a printed value. Where a SMILES comes first, the peptide text is derived from it. Bridges are numbered along the chain shown (N, C = ends). Roman numbers before positions name the chains, in order. [ ]: non-standard residue; d: D form. The star is where a group is joined. Thr(ol) = C[C@@H](O)[C@H](N)CO; aThr = C[C@H](O)[C@H](N)C(=O)O; Tle = CC(C)(C)[C@H](N)C(=O)O; Hiv = CC(C)[C@H](O)C(=O)O; dDab = NCC[C@@H](N)C(=O)O; hSer = N[C@@H](CCO)C(=O)O; NHCH(CH2OH)2 = OCC(CO)N*; Dab = NCC[C@H](N)C(=O)O; Abu = CC[C@H](N)C(=O)O; Dap = NC[C@H](N)C(=O)O

Key:
[1] = tested on: Pseudomonas aeruginosa ATCC 27853; type: cell-based; conditions: ATCC 27853
How it was run: (§1)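 Standard CLSI microdilution testing: bacterial suspensions standardized against 0.5 McFarland to about 10^6 CFU/mL in MH-II broth meet serially halved peptide concentrations in broth containing 0.002% polysorbate 80; incubation lasts 18-20 h at 35° C before the MIC is scored.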

[2] = tested on: Acinetobacter baumannii DSM 30008; type: cell-based; conditions: DSM 30008
How it was run: as §1

Escherichia coli 926415 = type: cell-based; conditions: 926415
How it was run: as §1

[3] = tested on: Klebsiella pneumoniae SSI #3010; type: cell-based; conditions: SSI #3010
How it was run: as §1

[4] = tested on: Enterobacter cloacae 848840; type: cell-based; conditions: 848840
How it was run: as §1

[5] = tested on: Acinetobacter baumannii 872842; type: cell-based; conditions: 872842
How it was run: as §1

[6] = tested on: Escherichia coli ATCC 25922; type: cell-based; conditions: ATCC 25922
How it was run: as §1

[7] = tested on: Klebsiella pneumoniae 968733; type: cell-based; conditions: 968733
How it was run: as §1

male ICR mice = assay: Tolerability in a mouse model (Maximum Tolerated Dose assay); type: in vivo; conditions: groups of 3
How it was run: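 Peptides in 0.9% NaCl (pH 6.5-7.6) given s.c. at 30 or 40 mg/kg, twice 12 h apart, to groups of 3 male ICR mice (23±3 g). Acute toxic signs (mortality, convulsions, tremors, sedation) and autonomic effects (diarrhea, salivation, piloerection) observed for 30 min after each dose.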

[8] = tested on: human red blood cells (hRBC); assay: Hemolysis; type: cell-based; conditions: red cells of human, 1 h, 200
How it was run: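 Percent lysis of human red cells was derived from OD540 of the supernatant, referenced to 2% Triton X-100, after a 1 h, 37° C incubation of 20% (v/v) cells with 200 μg/mL peptide.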

[9] = 2 × 40 mg/kg s.c. at a 12-hr interval
[10] = 2 × 30 mg/kg s.c. at a 12-hr interval

SMILES | Pseudomonas aeruginosa ATCC 27853 MIC [1] [µg/mL] | Acinetobacter baumannii DSM 30008 MIC [2] [µg/mL] | MIC (Escherichia coli 926415) [µg/mL] | Klebsiella pneumoniae SSI #3010 MIC [3] [µg/mL] | MIC [4] [µg/mL] | MIC [5] [µg/mL] | Escherichia coli ATCC 25922 MIC [6] [µg/mL] | MIC [7] [µg/mL] | Mortality and dose (male ICR mice; [9]) | Hemolysis at 200 μg/mL [8] [%] | MIC [1] [µg/mL] | MIC [2] [µg/mL] | MIC [3] [µg/mL] | MIC [6] [µg/mL] | Mortality and dose (male ICR mice; [10])
CC(=O)N[C@H](C(=O)N[C@H]1CSSC[C@@H](C(=O)N[C@@H](CO)C(N)=O)NC(=O)[C@H](C(C)C)NC(=O)[C@H](CO)NC(=O)[C@H](Cc2c[nH]c3ccccc23)NC(=O)[C@H](CO)NC(=O)[C@@H](CCN)NC(=O)[C@H](CCC(=O)N[C@@H](CCN)C(=O)N[C@H](C(=O)N[C@@H](CCN)C(=O)N[C@H]2CCNC(=O)[C@H]([C@@H](C)O)NC(=O)[C@H](CCN)NC(=O)[C@H](CCN)NC(=O)[C@H](CC(C)C)NC(=O)[C@@H](CC(C)C)NC(=O)[C@H](CCN)NC2=O)[C@@H](C)O)NC(=O)[C@H](CCN)NC(=O)[C@H](Cc2ccc(O)cc2)NC1=O)C(C)C [Ex. 334] (I: Ac-VCY[Dab]E[dDab]SWSVCS-NH2 / II: [Dab]T[Dab][Dab][Dab][dL]L[Dab][Dab]T; disulfide I:2-I:11; amide I:5-II:N; lactam II:4-II:C) | 0.125 | 0.03125 | 0.25 (≈ 0.104 µM) | 0.0625 | 0.125 (≈ 0.0518 µM) | 0.125 (≈ 0.0518 µM) | 0.03125 | 0.25 (≈ 0.104 µM) | 0/3 died at 2 × 40 mg/kg | <1 | – | – | – | – | –
CC(=O)N[C@H](C(=O)N[C@H]1CSSC[C@@H](C(=O)N[C@@H](CO)C(N)=O)NC(=O)[C@H](C(C)C)NC(=O)[C@H]([C@H](C)O)NC(=O)[C@H](Cc2c[nH]c3ccccc23)NC(=O)[C@H](CO)NC(=O)[C@@H](CCN)NC(=O)[C@H](CCC(=O)N[C@@H](CCN)C(=O)N[C@H](C(=O)N[C@@H](CN)C(=O)N[C@H]2CCNC(=O)[C@H]([C@@H](C)O)NC(=O)[C@H](CCN)NC(=O)[C@H](CCN)NC(=O)[C@H](CC(C)C)NC(=O)[C@@H](CC(C)C)NC(=O)[C@H](CCN)NC2=O)[C@@H](C)O)NC(=O)[C@H](CCN)NC(=O)[C@H](Cc2ccc(O)cc2)NC1=O)C(C)C [Ex. 306] (I: Ac-VCY[Dab]E[dDab]SW[aThr]VCS-NH2 / II: [Dab]T[Dap][Dab][Dab][dL]L[Dab][Dab]T; disulfide I:2-I:11; amide I:5-II:N; lactam II:4-II:C) | 0.0625 | 0.0625 | 0.0625 (≈ 0.0259 µM) | 0.0625 | 0.0625 (≈ 0.0259 µM) | 0.0625 (≈ 0.0259 µM) | 0.03125 | 0.125 (≈ 0.0518 µM) | 0/3 died at 2 × 40 mg/kg | <1 | – | – | – | – | –
CC(=O)N[C@H](C(=O)N[C@H]1CSSC[C@@H](C(=O)N[C@@H](CO)C(N)=O)NC(=O)[C@H](C(C)C)NC(=O)[C@H](CO)NC(=O)[C@H](Cc2c[nH]c3ccccc23)NC(=O)[C@H](CCN)NC(=O)[C@@H](CO)NC(=O)[C@H](CCC(=O)N[C@@H](CCN)C(=O)N[C@H](C(=O)N[C@@H](CN)C(=O)N[C@H]2CCNC(=O)[C@H]([C@@H](C)O)NC(=O)[C@H](CCN)NC(=O)[C@H](CCN)NC(=O)[C@H](CC(C)C)NC(=O)[C@@H](CC(C)C)NC(=O)[C@H](CCN)NC2=O)[C@@H](C)O)NC(=O)[C@H](CCN)NC(=O)[C@H](Cc2ccc(O)cc2)NC1=O)C(C)C [Ex. 297] (I: Ac-VCY[Dab]E[dS][Dab]WSVCS-NH2 / II: [Dab]T[Dap][Dab][Dab][dL]L[Dab][Dab]T; disulfide I:2-I:11; amide I:5-II:N; lactam II:4-II:C) | – | – | 0.125 (≈ 0.0521 µM) | – | 0.125 (≈ 0.0521 µM) | 0.0625 (≈ 0.0261 µM) | – | 0.125 (≈ 0.0521 µM) | 0/3 died at 2 × 40 mg/kg | <1 | 0.125 (≈ 0.0521 µM) | 0.03125 (≈ 0.013 µM) | 0.0625 (≈ 0.0261 µM) | 0.03125 (≈ 0.013 µM) | –
CC(=O)N[C@@H](Cc1ccc(O)cc1)C(=O)N[C@H]1CSSC[C@@H](C(=O)NC(CO)CO)NC(=O)[C@H](C(C)(C)C)NC(=O)[C@H](CO)NC(=O)[C@H](Cc2c[nH]c3ccccc23)NC(=O)[C@H](CCO)NC(=O)[C@@H](CCN)NC(=O)[C@H](CCC(=O)N[C@@H](CCN)C(=O)N[C@H](C(=O)N[C@@H](CCN)C(=O)N[C@H]2CCNC(=O)[C@H]([C@@H](C)O)NC(=O)[C@H](CCN)NC(=O)[C@H](CCN)NC(=O)[C@H](CC(C)C)NC(=O)[C@@H](CC(C)C)NC(=O)[C@H](CCN)NC2=O)[C@@H](C)O)NC(=O)[C@H](CCN)NC(=O)[C@H](C(C)C)NC1=O [Ex. 96] (I: Ac-YCV[Dab]E[dDab][hSer]WS[Tle]C-{NHCH(CH2OH)2} / II: [Dab]T[Dab][Dab][Dab][dL]L[Dab][Dab]T; disulfide I:2-I:11; amide I:5-II:N; lactam II:4-II:C) | – | – | 0.5 (≈ 0.206 µM) | – | 8 (≈ 3.3 µM) | 0.5 (≈ 0.206 µM) | – | 0.125 (≈ 0.0515 µM) | – | <1 | 0.125 (≈ 0.0515 µM) | 0.125 (≈ 0.0515 µM) | 0.125 (≈ 0.0515 µM) | 0.0625 (≈ 0.0257 µM) | 0/3 died at 2 × 30 mg/kg
CC(=O)N[C@H](C(=O)N[C@H]1CSSC[C@@H](C(=O)N[C@@H](CO)C(N)=O)NC(=O)[C@H](C(C)C)NC(=O)[C@H](CO)NC(=O)[C@H](Cc2c[nH]c3ccccc23)NC(=O)[C@H](CCC(=O)N[C@@H](CCN)C(=O)N[C@H](C(=O)N[C@@H](CN)C(=O)N[C@H]2CCNC(=O)[C@H]([C@@H](C)O)NC(=O)[C@H](CCN)NC(=O)[C@H](CCN)NC(=O)[C@H](CC(C)C)NC(=O)[C@@H](CC(C)C)NC(=O)[C@H](CCN)NC2=O)[C@@H](C)O)NC(=O)[C@@H](CCN)NC(=O)[C@H](Cc2c[nH]cn2)NC(=O)[C@H](CO)NC(=O)[C@H](Cc2ccc(O)cc2)NC1=O)C(C)C [Ex. 358] (I: Ac-VCYSH[dDab]EWSVCS-NH2 / II: [Dab]T[Dap][Dab][Dab][dL]L[Dab][Dab]T; disulfide I:2-I:11; amide I:7-II:N; lactam II:4-II:C) | 0.125 | 0.03125 | 0.25 (≈ 0.103 µM) | 0.125 | 0.125 (≈ 0.0513 µM) | 0.0625 (≈ 0.0257 µM) | 0.03125 | 0.25 (≈ 0.103 µM) | 0/3 died at 2 × 40 mg/kg | 1 | – | – | – | – | –
CC[C@@H]1NC(=O)[C@@H](CC(C)C)NC(=O)[C@H](CCN)NC(=O)[C@@H](NC(=O)[C@H](CN)NC(=O)[C@@H](NC(=O)[C@H](CCN)NC(=O)CC[C@@H]2NC(=O)[C@H]([C@@H](C)O)NC(=O)[C@H](Cc3ccc(O)cc3)NC(=O)[C@@H](NC(=O)[C@@H](NC(C)=O)C(C)C)CSSC[C@@H](C(=O)N[C@@H](CO)C(N)=O)NC(=O)[C@H]([C@@H](C)CC)NC(=O)[C@H](CO)NC(=O)[C@H](Cc3c[nH]c4ccccc34)NC(=O)[C@H](CCN)NC(=O)[C@@H](CCN)NC2=O)[C@@H](C)O)CCNC(=O)[C@H]([C@@H](C)O)NC(=O)[C@H](CCN)NC(=O)[C@H](CCN)NC1=O [Ex. 258] (I: Ac-VCYTE[dDab][Dab]WSICS-NH2 / II: [Dab]T[Dap][Dab][Dab][dL][Abu][Dab][Dab]T; disulfide I:2-I:11; amide I:5-II:N; lactam II:4-II:C) | – | – | 0.25 (≈ 0.104 µM) | – | 0.0625 (≈ 0.0261 µM) | 0.03125 (≈ 0.013 µM) | – | 0.125 (≈ 0.0521 µM) | – | 2 | 0.0625 (≈ 0.0261 µM) | 0.03125 (≈ 0.013 µM) | 0.03125 (≈ 0.013 µM) | 0.0625 (≈ 0.0261 µM) | 0/3 died at 2 × 30 mg/kg
CC(C)C[C@@H]1NC(=O)[C@@H](CC(C)C)NC(=O)[C@H](CCN)NC(=O)[C@@H](NC(=O)[C@H](CCN)NC(=O)[C@@H](NC(=O)[C@H](CCN)NC(=O)CC[C@@H]2NC(=O)[C@H](CN)NC(=O)[C@H](Cc3ccc(O)cc3)NC(=O)[C@@H](NC(=O)[C@@H](O)C(C)C)CSSC[C@@H](C(=O)N[C@H](CO)[C@@H](C)O)NC(=O)[C@H](C(C)(C)C)NC(=O)[C@H](CO)NC(=O)[C@H](Cc3c[nH]c4ccccc34)NC(=O)[C@H]([C@@H](C)O)NC(=O)[C@@H](CCN)NC2=O)[C@@H](C)O)CCNC(=O)[C@H]([C@@H](C)O)NC(=O)[C@H](CCN)NC(=O)[C@H](CCN)NC1=O [Ex. 58] (I: H-[Hiv]CY[Dap]E[dDab]TWS[Tle]C[Thr(ol)] / II: [Dab]T[Dab][Dab][Dab][dL]L[Dab][Dab]T; disulfide I:2-I:11; amide I:5-II:N; lactam II:4-II:C) | – | – | 0.125 (≈ 0.0524 µM) | – | 0.125 (≈ 0.0524 µM) | 0.0625 (≈ 0.0262 µM) | – | 0.25 (≈ 0.105 µM) | – | 1 | 0.25 (≈ 0.105 µM) | 0.0625 (≈ 0.0262 µM) | 0.125 (≈ 0.0524 µM) | 0.0625 (≈ 0.0262 µM) | 0/3 died at 2 × 30 mg/kg
